Measured values: patent US20250074910A1, “MENIN INHIBITOR AND USE THEREOF” (HITGEN INC., priority 2021, published 2025)

Tests used:
OCI-AML3 = assay: Cell proliferation inhibition (CellTiter-Glo), OCI-AML3 (NPM1 mutation); assay type: cell-based; details: OCI-AML3 cells
Method: (§1) Test Example 2: Test of the Inhibitory Ability of Menin-MLL Interaction Inhibitors on Cell Proliferation
(§2) The inhibitory ability of the compounds of the present disclosure on the proliferation of tumor cell lines (including cell lines containing MLL fusion protein such as MV4-11, MOLM-13, THP-1 and NOMO-1, control cell lines without MLL fusion protein such as HL-60, K562 and MOLM-16, and cell lines containing NPM1 mutation such as OCI-AML3) was evaluated by using the cell viability analysis method. The cells were plated in 96-well plates at a certain concentration (e.g., 5,000-20,000 cells/well), and then an equal volume of culture medium containing 2 times the final concentration of the test compound (the final concentration ranging 10 from 1 nM to 10 μM) was added. The plates were placed in an incubator and cultured at 37° C. and 5% CO2 for 72-168 h. Before the test, an equal volume of CellTiter-Glo® Luminescent reagent was added, and the plate was incubated at room temperature for 10 min before detection using an ELISA reader (BMG LABTECH). The data were analyzed using GraphPad Prism software to obtain the IC50 value and compound fitting curve. The control compound 1 was prepared by referring to the method of Example 64 in WO2017214367.

MOLM-13 = assay: Cell proliferation inhibition (CellTiter-Glo), MOLM-13; assay type: cell-based; details: MOLM-13 cells
Method: as §1, §2

MV4-11 = assay: Cell proliferation inhibition (CellTiter-Glo), MV4-11; assay type: cell-based; details: MV4-11 cells
Method: as §1, §2

[1] = target: Menin/MLL-4-43 peptide interaction (Homo sapiens (Human), UniProt O00255); assay: Menin-MLL interaction inhibitory activity assay (fluorescence polarization competition); assay type: binding; details: FITC-MLL4-43-peptide, Menin recombinant protein
Sequence of Menin/MLL-4-43 peptide interaction (O00255 whole entry, species assumed): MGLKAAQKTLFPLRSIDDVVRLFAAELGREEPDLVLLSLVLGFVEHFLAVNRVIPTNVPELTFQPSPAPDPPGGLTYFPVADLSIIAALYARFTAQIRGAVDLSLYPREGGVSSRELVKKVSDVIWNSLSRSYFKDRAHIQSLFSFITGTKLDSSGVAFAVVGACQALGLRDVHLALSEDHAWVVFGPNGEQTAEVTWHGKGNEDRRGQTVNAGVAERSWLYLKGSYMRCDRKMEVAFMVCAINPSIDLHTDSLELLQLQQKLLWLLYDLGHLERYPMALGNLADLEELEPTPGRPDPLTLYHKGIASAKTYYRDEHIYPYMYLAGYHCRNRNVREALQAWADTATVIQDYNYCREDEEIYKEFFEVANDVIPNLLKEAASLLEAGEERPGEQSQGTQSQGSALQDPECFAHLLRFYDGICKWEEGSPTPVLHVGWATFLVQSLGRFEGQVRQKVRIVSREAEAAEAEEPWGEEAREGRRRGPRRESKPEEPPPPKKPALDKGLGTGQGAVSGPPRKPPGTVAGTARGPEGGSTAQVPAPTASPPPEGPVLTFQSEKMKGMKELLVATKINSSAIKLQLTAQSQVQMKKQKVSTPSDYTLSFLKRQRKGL
Method: Test Example 1: Menin-MLL Interaction Inhibitory Activity Assay
The inhibition of Menin/MLL-4-43 peptide interaction by small molecule inhibitors was quantitatively detected by fluorescence polarization competition assay. The experiment was performed in a 384-well plate (Corning, Cat #3575) using a reaction buffer consisting of 50 mM Tris, pH 7.5, 50 mM NaCl, and 1 mM DTT. A 40 μL reaction system included 10 μL of 8 nM Menin recombinant protein and 10 μL of the test compound at different concentrations. The compound was pre-incubated with Menin protein for 15 min, and then 20 μL of 10 nM FITC-MLL4-43-peptide was added. After incubation on a shaker at 25° C. for 60 min, the fluorescence polarization signal (FP 485 520 520) was read using BMG PHERAStar detection. The experimental data was analyzed and processed by GraphPad Prism 6 software to obtain the IC50 value. The control compound 1 was prepared by referring to the method of Example 64 in WO2017214367.

SMILES	GI50 (OCI-AML3; Homo sapiens, OCI-AML-3, 168 h)	GI50 (MOLM-13; Homo sapiens, MOLM-13, 168 h)	GI50 (MV4-11; 72 h)	IC50 [1]	GI50 (OCI-AML3; 168 h)	GI50 (MOLM-13; 168 h)	GI50 (MV4-11; Homo sapiens, MV4-11, 72 h)
CCN(C(=O)c1cc(F)ccc1Oc1cncnc1N1CC2(CCN(CC3CC4CCC3CC43CCC(=O)N3)CC2)C1)C(C)C (single isomer, unassigned) [Example 3-1]	66.5 nM	47.4 nM	324 nM	29 nM	–	–	–
CCN(C(=O)c1cc(F)ccc1Oc1nncnc1N1CC2(CCN(C[C@H]3CC[C@]4(CC3)CC(C)C(=O)N4)CC2)C1)C(C)C (single isomer, unassigned) [Example 40-1]	199 nM	122 nM	41.2 nM	14.8 nM	–	–	–
[2H]C([2H])([2H])C1C[C@]2(CC[C@@H](CN3CCC4(CC3)CN(c3ncnnc3Oc3ccc(F)cc3C(=O)N(C(C)C)C(C)C)C4)CC2)NC1=O (single isomer, unassigned) [Example 43-2]	–	–	90 nM	48.7 nM	80.6 nM	137 nM	–
CC(C)N(C(=O)c1cc(F)ccc1Oc1nncnc1N1CC2(CCN(CC3CCC4(CC3)CC3(CC3)C(=O)N4)CC2)C1)C(C)C (single isomer, unassigned) [Example 44-1]	–	–	–	48.8 nM	60.5 nM	111 nM	16.7 nM
CC(C)N(C(=O)c1cc(F)ccc1Oc1nncnc1N1CC2(CCN(CC3CCC4(CC3)CC3(CC3)C(=O)N4)CC2)C1)C(C)C (single isomer, unassigned) [Example 44-2]	–	–	9.7 nM	7.9 nM	26.4 nM	30.4 nM	–
CCN(C(=O)c1cc(F)ccc1Oc1cncnc1N1CC2(CCN(CC3CC4CCC3CC43COC(=O)N3)CC2)C1)C(C)C (single isomer, unassigned) [Example 50-1b]	–	88.9 nM	–	21.8 nM	61.7 nM	–	26.4 nM
CCN(C(=O)c1cc(F)ccc1Oc1cncnc1N1CC2(CCN(CC3CC4CCC3CC43COC(=O)N3)CC2)C1)C(C)C (single isomer, unassigned) [Example 50-2a]	–	–	20.5 nM	21.1 nM	56.4 nM	125 nM	–
CCN(C(=O)c1cc(F)ccc1Oc1cncnc1N1CC2(CCN(CC3CC4CCC3CC43COC(=O)N3)CC2)C1)C(C)C (single isomer, unassigned) [Example 50-2b]	–	–	26.4 nM	61.1 nM	119 nM	93.3 nM	–
CC(C)N(C(=O)c1cc(F)ccc1Oc1cncnc1N1CC2(CCN(CC3CC4CCC3CC43COC(=O)N3)CC2)C1)C(C)C (single isomer, unassigned) [Example 51-1]	68.5 nM	101 nM	–	35.3 nM	–	–	21.1 nM
CC(C)N(C(=O)c1cc(F)ccc1Oc1cncnc1N1CC2(CCN(C[C@H]3CC[C@]4(CC3)CC(C)(C)C(=O)N4)CC2)C1)C1CCC1 [Example 25]	64.3 nM	86.3 nM	–	31.2 nM	–	–	6.9 nM
CC(C)N(C(=O)c1cc(F)ccc1Oc1nncnc1N1CC2(CCN(C[C@H]3CC[C@]4(CC3)CC(C)(C)C(=O)N4)CC2)C1)C1CC1 [Example 30]	52 nM	197 nM	–	33 nM	–	–	35.2 nM
CC(C)N(C(=O)c1cc(F)ccc1Oc1nncnc1N1CC2(CCN(C[C@H]3CC[C@]4(CC3)CC(C)(C)C(=O)N4)CC2)C1)C1CCC1 [Example 32]	63.6 nM	179 nM	–	39.3 nM	–	–	17.8 nM

Other lines, results leading:

GI50 (OCI-AML3; Homo sapiens, OCI-AML-3, 168 h)	GI50 (MOLM-13; Homo sapiens, MOLM-13, 168 h)	GI50 (MV4-11; 72 h)	IC50 [1]	GI50 (OCI-AML3; 168 h)	GI50 (MOLM-13; 168 h)	GI50 (MV4-11; Homo sapiens, MV4-11, 72 h)	SMILES
–	–	18.8 nM	47.6 nM	35.3 nM	93.3 nM	–	CC(C)N(C(=O)c1cc(F)ccc1Oc1cncnc1N1CC2(CCN(CC3CC4CCC3CC43COC(=O)N3)CC2)C1)C(C)C (single isomer, unassigned) [Example 51-2]
18.5 nM	36.2 nM	–	7.8 nM	–	–	9.6 nM	CC(C)N(C(=O)c1cc(F)ccc1Oc1nncnc1N1CC2(CCN(C[C@H]3CC[C@]4(CC3)CC(C(C)(C)O)C(=O)N4)CC2)C1)C(C)C (single isomer, unassigned) [Example 59-1a]
42.4 nM	88.9 nM	–	2.9 nM	–	–	17.2 nM	CCN(C(=O)c1cc(F)ccc1Oc1nncnc1N1CC2(CCN(C[C@H]3CC[C@]4(CC3)CC(C(C)(C)O)C(=O)N4)CC2)C1)C(C)C (stereo partly drawn) [Example 58-1]
34.7 nM	55.9 nM	–	2.5 nM	–	–	15.3 nM	CC(C)N(C(=O)c1cc(F)ccc1Oc1nncnc1N1CC2(CCN(C[C@H]3CC[C@]4(CC3)CC(C(C)(C)O)C(=O)N4)CC2)C1)C(C)C (stereo partly drawn) [Example 59-1]
92.4 nM	175 nM	–	28.4 nM	–	–	35 nM	CCN(C(=O)c1cc(F)ccc1Oc1nncnc1N1CC2(CCN(C[C@H]3CC[C@]4(CC3)CC(=C(C)C)C(=O)N4)CC2)C1)C(C)C [Example 60]
72.1 nM	108 nM	–	25.5 nM	–	–	23 nM	CC(C)=C1C[C@]2(CC[C@@H](CN3CCC4(CC3)CN(c3ncnnc3Oc3ccc(F)cc3C(=O)N(C(C)C)C(C)C)C4)CC2)NC1=O [Example 61]
